Assay [1] has as its system MOLM-13 acute myeloid leukemia cell line. The experiment in a line: MOLM-13 cell growth inhibition assay. The assay is classed as cell-based.
The test system of assay [2] is Kasumi-1 acute myeloid leukemia cell line. As to the kind of experiment: Kasumi-1 cell growth inhibition assay. The conditions noted are these: read-out: Kasumi-1 IC50. The assay is classed as cell-based.
For assay [3], the target named is recombinant human Hsp90 (Hsp90α) (Homo sapiens, UniProt P07900). As to the kind of experiment: Competitive binding to recombinant human Hsp90. The conditions noted are these: relative to control 17-AAG.
The test system of assay [4] is oncostatin M signaling. Conditions: cited from earlier work.
Assay [5] relates to Hsp90 derived from MDA-MB-468 breast cancer cell lysate. As to the kind of experiment: Competitive binding assay to Hsp90 from MDA-MB-468 breast cancer cell lysate.
Assay [6] deals with human histiocytic lymphoma U-937. The conditions noted are these: U-937 cells; cited from earlier work.
Where [7] appears, read: read-out: MOLM-13 IC50, cell growth inhibition, MOLM-13.

The structures appear in SMILES notation. Like-named read-outs stand apart in the source and are kept apart here.

On to `C=CCNC1=C2C[C@@H](C)C[C@H](OC)[C@H](O)[C@@H](C)/C=C(\C)[C@H](OC(N)=O)[C@@H](OC)/C=C\C=C(/C)C(=O)NC(=CC1=O)C2=O` [17-AAG (4), 17-allylamino-17-demethoxygeldanamycin, reference compound], for which the IC50 (as a rule, the concentration that gives 50% inhibition) is 90 nM in assay [1] (setting [7]); around 90 nM in assay [1] (read-out: MOLM-13 IC50, cell growth inhibition, MOLM-13, listed as 17-AAG 4); 480 nM in assay [2].

Consider `CO[C@H]1C[C@H](C)Cc2cc(O)cc(c2)NC(=O)/C(C)=C/CC[C@H](OC)[C@@H](OC(N)=O)/C(C)=C/[C@H](C)[C@H]1O` [autolytimycin (2), Autolytimycin], for which the IC50 in assay [1] (setting [7]) was around 510 nM; in assay [1] (read-out: MOLM-13 IC50, cell growth inhibition, MOLM-13, listed as autolytimcyin (2)), 510 nM; in assay [2], 280 nM. Besides, the “Fold higher Hsp90 affinity than 17-AAG” value is given as 4 fold in assay [3] and “about 4 fold” in assay [3] (listed as autolytimycin 2). Moreover, in assay [4], the “Activity in cell based oncostatin M signaling assay” value is on record as “exhibit activity”.

For `COc1c(O)cc2cc1C[C@@H](C)C[C@H](OC)[C@H](O)[C@@H](C)/C=C(\C)[C@H](OC(N)=O)[C@@H](OC)CC/C=C(\C)C(=O)N2` [reblastatin (1), reblastatin], the half-maximal inhibitory concentration (IC50) in assay [1] (Homo sapiens, MOLM-13, read-out: MOLM-13 IC50, cell growth inhibition, MOLM-13) is around 270 nM; in assay [4] (read-out: IC50, oncostatin M signaling assay, cell-based), 160 nM. Besides, in assay [1] (MOLM-13 cell line), the “Fold less active than 17-AAG” value is 3 fold. In addition, the “Competitive binding (nanomolar activity) to Hsp90” value in assay [5] (Hsp90 from MDA-MB-468 breast cancer cell lysate) was 7.34 nM. Also, the “Fold enhanced activity over geldanamycin” value in assay [5] (MDA-MB-468 lysate competitive binding) came to 4 fold. Besides, the results for the “Fold higher Hsp90 affinity than 17-AAG” value in assay [3] and in assay [3] (listed as reblastatin 1) were 4 fold and “about 4 fold”, respectively. For the same compound, the “IC50, inhibition of proliferation” value in assay [6] is 0.43 µg/mL.
